The text below walks through data of PubChem BioAssay (NCI).

Some test systems named below: UACC-257 melanoma; MDA-MB-231 breast; HOP-62 NSCLC; SNB-19 CNS; OVCAR-4 ovarian; UO-31 renal; SK-MEL-2 melanoma; HCT-15 colon; 786-0 renal; UACC-62 melanoma; T-47D breast; SN12C renal; MOLT-4 leukemia; BT-549 breast; RPMI-8226 leukemia; SK-MEL-5 melanoma; HOP-92 NSCLC; SK-OV-3 ovarian; M14 melanoma.
Assay in all cases: inhibition of tumour cell growth, NCI panel, 48 h

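All cell lines were grown in 96-well plates and treated with compound for 48 hours. TGI: total growth inhibition.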

For the molecule `COc1ccc(-n2c(C)nc3ccc(NC4OC(COC(C)=O)C(OC(C)=O)C(OC(C)=O)C4OC(C)=O)cc3c2=O)cc1` (configuration not stated), the TGI in the assay with UACC-257 melanoma, in the assay with MDA-MB-231 breast, in the assay with HOP-62 NSCLC, in the assay on SNB-19 CNS, with OVCAR-4 ovarian and with UO-31 renal was > 100 µM each time. The TGI in the assay on SK-MEL-2 melanoma was > 100 µM; with HCT-15 colon, > 100 µM; with 786-0 renal, 65.3 µM; in the assay with UACC-62 melanoma, > 100 µM; in the assay on T-47D breast, > 100 µM; in the assay with SN12C renal it was > 100 µM. Also, the TGI was 80.8 µM in the assay on MOLT-4 leukemia, > 100 µM in the assay on BT-549 breast, 61.2 µM with RPMI-8226 leukemia and > 100 µM in the assay with SK-MEL-5 melanoma.

For `Fc1nc(-c2c3ccccc3c3sc4ccccc4n23)nc(N2CCOCCOCCOCCOCC2)n1`, the TGI in the assay on UACC-257 melanoma was > 100 µM; in the assay with MDA-MB-231 breast, > 100 µM; with HOP-92 NSCLC it was 93 µM; in the assay with HOP-62 NSCLC, > 100 µM; with SNB-19 CNS, > 100 µM; in the assay with SK-OV-3 ovarian, > 100 µM. For the same molecule, the TGI with OVCAR-4 ovarian, in the assay with UO-31 renal, with HCT-15 colon, with 786-0 renal, with M14 melanoma and with UACC-62 melanoma was > 100 µM in each case. Besides, the TGI in the assay with SN12C renal, with MOLT-4 leukemia, with BT-549 breast, in the assay on RPMI-8226 leukemia and in the assay on SK-MEL-5 melanoma was > 100 µM each time.

Take `c1ccc(CSCCC(SCc2ccccc2)SCc2ccccc2)cc1`: the TGI in the assay with UACC-257 melanoma, in the assay on MDA-MB-231 breast, in the assay with HOP-92 NSCLC, in the assay on HOP-62 NSCLC, with SNB-19 CNS and in the assay with SK-OV-3 ovarian was > 10 µM each time. In addition, the TGI in the assay on OVCAR-4 ovarian, in the assay with UO-31 renal, in the assay on SK-MEL-2 melanoma, in the assay with HCT-15 colon, with 786-0 renal and in the assay with M14 melanoma was > 10 µM in each case. The TGI in the assay on UACC-62 melanoma, in the assay with T-47D breast, in the assay with SN12C renal, with MOLT-4 leukemia, in the assay on RPMI-8226 leukemia and in the assay on SK-MEL-5 melanoma was > 10 µM each time.

As for `O=C(NC1C(=O)NC(CCc2ccccc2)NC1=O)OCc1ccccc1` (configuration not stated), the TGI in the assay on UACC-257 melanoma, in the assay with MDA-MB-231 breast, in the assay on HOP-92 NSCLC, in the assay on HOP-62 NSCLC, in the assay on SNB-19 CNS and in the assay with OVCAR-4 ovarian was > 100 µM each time. The TGI with UO-31 renal, with HCT-15 colon, in the assay on 786-0 renal, in the assay with M14 melanoma, in the assay with UACC-62 melanoma and with T-47D breast was > 100 µM throughout. The TGI in the assay with SN12C renal, in the assay with MOLT-4 leukemia, with RPMI-8226 leukemia and in the assay on SK-MEL-5 melanoma was > 100 µM each time.

Turning to `CSCCCNC(=O)c1csc(-c2csc(CCNC(=O)CNC(=O)OC(C)(C)C)n2)n1`, the TGI in the assay on UACC-257 melanoma, with MDA-MB-231 breast, in the assay with HOP-92 NSCLC, with HOP-62 NSCLC, in the assay with SNB-19 CNS and in the assay on SK-OV-3 ovarian was > 100 µM in each case. The TGI with OVCAR-4 ovarian, with UO-31 renal, with SK-MEL-2 melanoma, in the assay on HCT-15 colon, in the assay on 786-0 renal and with M14 melanoma was > 100 µM each time. Also, the TGI in the assay on UACC-62 melanoma, in the assay with SN12C renal, in the assay with MOLT-4 leukemia, with BT-549 breast and with SK-MEL-5 melanoma was > 100 µM each time.

For the molecule `CC(C)(C)C1CC[C@H](O)[C@H]([C@@H](O)CC2CC(=O)N(c3ccccc3)C(=O)C2)C1` (some centres not stated), the TGI in the assay with UACC-257 melanoma, in the assay with MDA-MB-231 breast, in the assay with HOP-92 NSCLC, with HOP-62 NSCLC, in the assay with SNB-19 CNS and in the assay with OVCAR-4 ovarian was > 100 µM each time. For the same molecule, the TGI in the assay on UO-31 renal is > 100 µM; in the assay with HCT-15 colon, > 100 µM; in the assay with 786-0 renal, > 100 µM; with M14 melanoma, > 100 µM; in the assay on UACC-62 melanoma, 74.9 µM; in the assay with SN12C renal, > 100 µM. For the same molecule, the TGI in the assay on MOLT-4 leukemia, in the assay on BT-549 breast, with RPMI-8226 leukemia and in the assay with SK-MEL-5 melanoma was > 100 µM throughout.

Consider `CCOC(=O)c1sc2c(c1OC(=O)c1ccco1)c(=O)n(-c1ccccc1)c(=S)n2-c1ccccc1`, for which the TGI in the assay with UACC-257 melanoma is > 100 µM; in the assay with MDA-MB-231 breast it was > 100 µM; with HOP-92 NSCLC, 71.3 µM; with HOP-62 NSCLC, > 100 µM; with SNB-19 CNS, > 100 µM; in the assay on SK-OV-3 ovarian, > 100 µM. For the same molecule, the TGI in the assay on OVCAR-4 ovarian is > 100 µM; in the assay with UO-31 renal, 2.71 µM; with HCT-15 colon, > 100 µM; in the assay with 786-0 renal, > 100 µM; with M14 melanoma, > 100 µM; with UACC-62 melanoma, 84.3 µM. Further, the TGI in the assay with T-47D breast is > 100 µM; with SN12C renal, 84.4 µM; in the assay on MOLT-4 leukemia it was 49.3 µM; in the assay on RPMI-8226 leukemia, 78.5 µM; in the assay with SK-MEL-5 melanoma, 32.1 µM.

With `O=C1CSc2ccnc(=O)n21`, the TGI with UACC-257 melanoma, in the assay with HOP-92 NSCLC, with HOP-62 NSCLC, in the assay with SNB-19 CNS, with SK-OV-3 ovarian and with OVCAR-4 ovarian was > 100 µM each time. Further, the TGI with UO-31 renal, in the assay with 786-0 renal, with M14 melanoma, in the assay with UACC-62 melanoma, in the assay on SN12C renal and in the assay with MOLT-4 leukemia was > 100 µM in each case. Also, the TGI in the assay on BT-549 breast, in the assay on RPMI-8226 leukemia and in the assay with SK-MEL-5 melanoma was > 100 µM throughout.
